Measurements reported in US20240158446A1, “CYCLIC COMPOUND HAVING SELECTIVE INHIBITORY ACTION ON KRAS OVER HRAS AND NRAS” (CHUGAI SEIYAKU KABUSHIKI KAISHA, priority 2021, published 2024).
Read-outs that look alike come from different tables or passages of the source. Where a SMILES comes first, the peptide text is derived from it. Bridges are numbered along the chain shown (N, C = ends). [ ]: non-standard residue; d: D form. The star is where a group is joined. hPhe(3-Cl-4-CF3) = N[C@@H](CCc1ccc(C(F)(F)F)c(Cl)c1)C(=O)O; NEtPhe(4-Me) = CCN[C@@H](Cc1ccc(C)cc1)C(=O)O; NMeD = CN[C@@H](CC(=O)O)C(=O)O; NMeL = CN[C@@H](CC(C)C)C(=O)O; NMeV = CN[C@H](C(=O)O)C(C)C; Morpholide = C1CN(*)CCO1; Ac5c = NC1(C(=O)O)CCCC1; Sar = CNCC(=O)O

Assays:
[1] = target: GDP-bound HRAS wild-type protein (Homo sapiens, UniProt P01112); assay: Binding to HRAS by surface plasmon resonance (SPR), Single Cycle Kinetics; conditions: for HRAS/KRAS (ratio of KD value for HRAS to KD value for KRAS) / HRAS/KRAS (ratio of KD value with respect to HRAS to KD value with respect to KRAS): SPR, GDP-bound HRAS wild-type protein vs GDP-bound KRAS wild-type protein
Chain of GDP-bound HRAS wild-type protein (P01112 whole entry): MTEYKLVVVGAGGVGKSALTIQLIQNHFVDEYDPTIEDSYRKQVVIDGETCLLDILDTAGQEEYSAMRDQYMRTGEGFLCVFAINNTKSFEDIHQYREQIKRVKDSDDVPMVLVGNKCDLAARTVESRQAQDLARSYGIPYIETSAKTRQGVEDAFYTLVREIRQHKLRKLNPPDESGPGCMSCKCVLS

[2] = system: human lung cancer strain NCI-H441;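 also: cell proliferation inhibition after four days measured by CellTiter-Glo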
[3] = target: GDP-bound NRAS wild-type protein (Homo sapiens, UniProt P01111); assay: Binding to NRAS by surface plasmon resonance (SPR), Single Cycle Kinetics; conditions: for NRAS/KRAS (ratio of KD value for NRAS to KD value for KRAS) / NRAS/KRAS (ratio of KD value with respect to NRAS to KD value with respect to KRAS): SPR, GDP-bound NRAS wild-type protein vs GDP-bound KRAS wild-type protein
Chain of GDP-bound NRAS wild-type protein (P01111 whole entry): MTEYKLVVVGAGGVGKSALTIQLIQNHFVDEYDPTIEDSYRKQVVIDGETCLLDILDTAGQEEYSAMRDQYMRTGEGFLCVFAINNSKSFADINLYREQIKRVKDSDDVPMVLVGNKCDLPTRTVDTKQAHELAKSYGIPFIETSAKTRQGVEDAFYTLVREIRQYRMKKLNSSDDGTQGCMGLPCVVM

Structure (SMILES)	IC50 [2] [nM]	IC50 ([2]; read-out: NCI-H441 IC50, NCI-H441 cells, four days, CellTiter-Glo) [nM]	HRAS/KRAS (ratio of KD value for HRAS to KD value for KRAS) [1]	NRAS/KRAS (ratio of KD value for NRAS to KD value for KRAS) [3]	HRAS/KRAS (ratio of KD value with respect to GDP-bound HRAS wild-type protein to KD value with respect to KRAS) ([1]; SPR KD ratio HRAS/KRAS, class symbols)	NRAS/KRAS (ratio of KD value with respect to GDP-bound NRAS wild-type protein to KD value with respect to KRAS) ([3]; SPR KD ratio NRAS/KRAS, class symbols)	HRAS/KRAS (ratio of KD value with respect to HRAS to KD value with respect to KRAS) [1]	NRAS/KRAS (ratio of KD value with respect to NRAS to KD value with respect to KRAS) [3]
CCO[C@@H]1C[C@H]2C(=O)NC3(CC(C)(C)C3)C(=O)N(C)[C@@H](C3CCCC3)C(=O)N(C)[C@H](C(=O)N(C)C)CC(=O)N(C)[C@@H](CC(C)C)C(=O)N[C@@H]([C@@H](C)CC)C(=O)N(C)CC(=O)N(C)[C@H]3C/C=C\CCN(C3=O)[C@@H](Cc3ccc(C(C)(F)F)cc3)C(=O)N(C)CC(=O)N[C@@H](CCc3ccc(C(F)(F)F)c(OC)c3)C(=O)N2C1 [PP2690]		3			A (a compound having 10 or more and less than 20 is denoted as A)	AA (a compound having 20 or more is denoted as AA)		
CC[C@H](C)[C@@H]1NC(=O)[C@H](CC(C)C)N(C)C(=O)C[C@@H](C(=O)N2CCOCC2)N(C)C(=O)[C@H](C2CCCC2)N(C)C(=O)C2(CCCC2)NC(=O)[C@@H]2CCCN2C(=O)[C@H](CCc2ccc(C(F)(F)F)c(Cl)c2)NC(=O)CN(C)C(=O)[C@H](Cc2ccc(OC)cc2)N2C/C=C\CC[C@@H](C2=O)N(C)C(=O)CN(C)C1=O [PP0609]	468						B (a compound having 3 or more and less than 10 is denoted as B)	B (a compound having 3 or more and less than 10 is denoted as B)
CCO[C@@H]1C[C@H]2C(=O)NC3(CCC3)C(=O)N(C)[C@@H](C3CCCC3)C(=O)N(CCC3CCCC3)[C@H](C(=O)N3CCOCC3)CC(=O)N(C)[C@@H](CC(C)C)C(=O)N[C@@H]([C@@H](C)CC)C(=O)N(C)CC(=O)N(C)[C@H]3CCCCCN(C3=O)[C@@H](Cc3ccc(C(F)(F)F)cc3)C(=O)N(C)CC(=O)N[C@@H](CCc3cc(F)c(C(F)(F)F)c(F)c3)C(=O)N2C1 [PP0641]	> 1300						A (a compound having 10 or more and less than 20 is denoted as A)	A (a compound having 10 or more and less than 20 is denoted as A)
CC[C@H](C)[C@@H]1NC(=O)[C@H](CC(C)C)N(C)C(=O)C[C@@H](C(=O)N2CCOCC2)N(C)C(=O)[C@H](C(C)C)N(C)C(=O)C2(CCCC2)NC(=O)[C@@H]2CCCN2C(=O)[C@H](CCc2ccc(C(F)(F)F)c(Cl)c2)NC(=O)CN(C)C(=O)[C@H](Cc2ccc(C)cc2)N(CC)C(=O)CN(C)C(=O)CN(C)C1=O [PP0044] ([NMeL]I[Sar][Sar][NEtPhe(4-Me)][Sar][hPhe(3-Cl-4-CF3)]P[Ac5c][NMeV][NMeD]-Morpholide; lactam N-11)	142		C (A compound having a KD ratio of 0.1 or more and less than 3 is denoted as C)	C (A compound having a KD ratio of 0.1 or more and less than 3 is denoted as C)				

The next lines start with results.

IC50 [2] [nM]	IC50 ([2]; read-out: NCI-H441 IC50, NCI-H441 cells, four days, CellTiter-Glo) [nM]	Structure (SMILES)	HRAS/KRAS (ratio of KD value for HRAS to KD value for KRAS) [1]	NRAS/KRAS (ratio of KD value for NRAS to KD value for KRAS) [3]	HRAS/KRAS (ratio of KD value with respect to GDP-bound HRAS wild-type protein to KD value with respect to KRAS) ([1]; SPR KD ratio HRAS/KRAS, class symbols)	NRAS/KRAS (ratio of KD value with respect to GDP-bound NRAS wild-type protein to KD value with respect to KRAS) ([3]; SPR KD ratio NRAS/KRAS, class symbols)	HRAS/KRAS (ratio of KD value with respect to HRAS to KD value with respect to KRAS) [1]	NRAS/KRAS (ratio of KD value with respect to NRAS to KD value with respect to KRAS) [3]
31.1		CCC[C@H]1C(=O)N[C@@H]([C@@H](C)CC)C(=O)N(C)CC(=O)N(C)[C@H]2C/C=C\CCN(C2=O)[C@@H](Cc2ccc(C)cc2)C(=O)N(C)CC(=O)N[C@@H](CCc2ccc(C(F)(F)F)c(OC)c2)C(=O)N2CC3(CC3)C[C@H]2C(=O)NC2(CC(C)(C)C2)C(=O)N(C)[C@@H]([C@@H](C)CC)C(=O)N(C)[C@H](C(=O)N(C)C)CC(=O)N1C [PP3011]	B (a compound having 3 or more and less than 10 is denoted as B)	A (a compound having 10 or more and less than 20 is denoted as A)				
21.8		CC[C@H](C)[C@@H]1NC(=O)[C@H](CC(C)C)N(C)C(=O)C[C@@H](C(=O)N2CCOCC2)N(C)C(=O)[C@H](C2CCCC2)N(C)C(=O)C2(CCCC2)NC(=O)[C@@H]2CCCN2C(=O)[C@H](CCc2ccc(C(F)(F)F)c(Cl)c2)NC(=O)CN(C)C(=O)[C@H](Cc2ccccc2)N2CC=CC[C@@H](C2=O)N(C)C(=O)CN(C)C1=O [PP0528]					C (A compound having a KD ratio of 0.1 or more and less than 3 is denoted as C)	C (A compound having a KD ratio of 0.1 or more and less than 3 is denoted as C)
63.9		CCO[C@@H]1C[C@H]2C(=O)NC3(CCC3)C(=O)N(C)[C@@H](C3CCCC3)C(=O)N(C)[C@H](C(=O)N(C)C)CC(=O)N(C)[C@@H](Cc3ccccc3C)C(=O)N[C@@H]([C@@H](C)CC)C(=O)N(C)CC(=O)N(C)[C@H]3CCCCCN(C3=O)[C@@H](Cc3ccc(C(F)(F)F)cc3)C(=O)N(C)CC(=O)N[C@@H](CCc3cc(F)c(C(F)(F)F)c(F)c3)C(=O)N2C1 [PP0941]	B (a compound having 3 or more and less than 10 is denoted as B)	B (a compound having 3 or more and less than 10 is denoted as B)				
